Patent US20100041089A1, “IMPROVED METHOD FOR DETECTING CHEMICAL […]” (priority 2006, published 2010)

Test system: yeast genes (expressed mRNA)
Assay: DNA chip measurement of expressed mRNA of yeast genes after culture with a toxic chemical substance
Assay type: cell-based, Saccharomyces cerevisiae S288C
Procedure: Yeast (Saccharomyces cerevisiae S288C (a SUC2mal mel gap2 CUP1)) were cultured at 25° C. on YPD medium (yeast extract 1%, polypeptone 2%, glucose 2%). One of toxic chemical substances was added to the cell at logarithmic growth phase, and the cell was further cultured for two hours. Cell was cultured without any chemical substance in the same condition, and was used as a control. Concentrations of the chemical substances were defined to inhibit the growth of the yeast but not lead to death.
After the completion of cultivation, the culture was centrifuged to collect the cells. To the cells, sodium acetate buffer (50 mM sodium acetate, 10 mM EDTA, 1% SDS) was added, and the mixture was shaken at 65° C. for five minutes, followed by returning to room temperature, and obtaining the supernatant, which procedure was repeated two times. To the supernatant, ½ amount of a solution of phenol/chloroform (1:1) was added, and the mixture was centrifuged to give a supernatant, an equal amount of chloroform was added, and the mixture was centrifuged to give a supernatant. To the supernatant, an equal amount of isopropanol containing 0.3 M sodium acetate was added, and the mixture was allowed to stand at room temperature for 30 minutes, after which the mixture was centrifuged to give sediment of the whole RNAs. Seventy % ethanol was added to the sediment, and the mixture was again centrifuged to give sediment, which was then dried and dissolved in water. mRNA was isolated from the whole RNAs as followings. In view of the fact that a poly A chain is attached to the 3′ terminus of mRNA, a polynucleotide having a poly T structure which was immobilized on the surface of latex beads was used to trap the mRNA, and then the mRNA was washed and eluted with spine column (Oligotex-dT30<Super>mRNA Purification Kit, Takara). Reverse transcription of the mRNA was conducted with a reverse transcriptase (Super Script II Reverse Transcriptase; catalogue No. 18064-014, GibcoBRL) using fluorescence-labeled nucleotides to give cDNAs that were introduced with Cy3-dUTP or Cy5-dUTP during the reverse transcription.
The labeled cDNAs were dissolved in TE buffer (10 mM Tris-HCl/1 mM EDTA, pH 8.0), and the solution was dropped on the DNA chip containing the whole genes of yeast (DNA Chip Research Inc. Japan) so that the cDNAs were hybridized on the DNA chip at 65° C. for over 12 hours. The fluoresces intensity of the DNA chip was read with a scanner, and the ratio relative to the fluorescence intensity resulting from the absence of chemical substance was estimated as the following, which is shown in Tables 1 to 9.
In the Tables, “Intensity” indicated in the rightmost column is a value of the level of expressed mRNA of each gene in control cells as divided by the average level of the expressions of the whole genes. A gene of which mRNA level is lower in control, and is higher in cases of addition of chemical substance, is especially useful in the detection of toxic substances.
Here, when a ratio of an amount of mRNA expressed in the presence of the chemical substance to an amount of mRNA expressed in the absence of the chemical substance is two or more, then it is considered significant.

CCCCCCCCCCCCOS(=O)(=O)[O-].[Na+] [(18), Sodium lauryl sulfate]
The level of expressed mRNA in the presence of chemical substance/The level of expressed mRNA in the absence of chemical substance (yeast gene YJR054W, cultured two hours with substance): 0.9 | The level of expressed mRNA in the presence of chemical substance/The level of expressed mRNA in the absence of chemical substance (yeast gene YKL034W, cultured two hours with substance): 1.2 | The level of expressed mRNA in the presence of chemical substance/The level of expressed mRNA in the absence of chemical substance (yeast gene YKL071W, cultured two hours with substance): 0.9 | The level of expressed mRNA in the presence of chemical substance/The level of expressed mRNA in the absence of chemical substance (yeast gene YKL086W, cultured two hours with substance): 1.0 | The level of expressed mRNA in the presence of chemical substance/The level of expressed mRNA in the absence of chemical substance (yeast gene YKL151C, cultured two hours with substance): 1.8 | The level of expressed mRNA in the presence of chemical substance/The level of expressed mRNA in the absence of chemical substance (yeast gene YKL153W, cultured two hours with substance): 1.3 | The level of expressed mRNA in the presence of chemical substance/The level of expressed mRNA in the absence of chemical substance (yeast gene YKL195W, cultured two hours with substance): 1.6 | The level of expressed mRNA in the presence of chemical substance/The level of expressed mRNA in the absence of chemical substance (yeast gene YKR049C, cultured two hours with substance): 3.3 | The level of expressed mRNA in the presence of chemical substance/The level of expressed mRNA in the absence of chemical substance (yeast gene YKR091W, cultured two hours with substance): 1.3 | The level of expressed mRNA in the presence of chemical substance/The level of expressed mRNA in the absence of chemical substance (yeast gene YLL056C, cultured two hours with substance): 2.5 | The level of expressed mRNA in the presence of chemical substance/The level of expressed mRNA in the absence of chemical substance (yeast gene YLR008C, cultured two hours with substance): 4.9 | The level of expressed mRNA in the presence of chemical substance/The level of expressed mRNA in the absence of chemical substance (yeast gene YLR031W, cultured two hours with substance): 1.2 | The level of expressed mRNA in the presence of chemical substance/The level of expressed mRNA in the absence of chemical substance (yeast gene YLR046C (detoxification protein gene)): 5.4 | The level of expressed mRNA in the presence of chemical substance/The level of expressed mRNA in the absence of chemical substance (yeast gene YLR054C, cultured two hours with substance): 1.1 | The level of expressed mRNA in the presence of chemical substance/The level of expressed mRNA in the absence of chemical substance (yeast gene YLR149C, cultured two hours with substance): 3.0 | The level of expressed mRNA in the presence of chemical substance/The level of expressed mRNA in the absence of chemical substance (yeast gene YLR152C, cultured two hours with substance): 1.8 | The level of expressed mRNA in the presence of chemical substance/The level of expressed mRNA in the absence of chemical substance (yeast gene YLR194C, cultured two hours with substance): 0.9 | The level of expressed mRNA in the presence of chemical substance/The level of expressed mRNA in the absence of chemical substance (yeast gene YLR324W, cultured two hours with substance): 1.2 | The level of expressed mRNA in the presence of chemical substance/The level of expressed mRNA in the absence of chemical substance (yeast gene YLR327C): 5.3 | The level of expressed mRNA in the presence of chemical substance/The level of expressed mRNA in the absence of chemical substance (yeast gene YLR346C, cultured two hours with substance): 7.8 | The level of expressed mRNA in the presence of chemical substance/The level of expressed mRNA in the absence of chemical substance (yeast gene YLR350W, cultured two hours with substance): 1.1 | The level of expressed mRNA in the presence of chemical substance/The level of expressed mRNA in the absence of chemical substance (yeast gene YLR387C, cultured two hours with substance): 1.4 | The level of expressed mRNA in the presence of chemical substance/The level of expressed mRNA in the absence of chemical substance (yeast gene YLR460C, cultured two hours with substance): 1.1 | The level of expressed mRNA in the presence of chemical substance/The level of expressed mRNA in the absence of chemical substance (yeast gene YML117W, cultured two hours with substance): 1.3 | The level of expressed mRNA in the presence of chemical substance/The level of expressed mRNA in the absence of chemical substance (yeast gene YML128C, cultured two hours with substance): 5.5 | The level of expressed mRNA in the presence of chemical substance/The level of expressed mRNA in the absence of chemical substance (yeast gene YMR009W, cultured two hours with substance): 2.5 | The level of expressed mRNA in the presence of chemical substance/The level of expressed mRNA in the absence of chemical substance (yeast gene YMR067C, cultured two hours with substance): 1.0 | The level of expressed mRNA in the presence of chemical substance/The level of expressed mRNA in the absence of chemical substance (yeast gene YMR090W, cultured two hours with substance): 2.8 | The level of expressed mRNA in the presence of chemical substance/The level of expressed mRNA in the absence of chemical substance (yeast gene YMR095C, cultured two hours with substance): 1.0 | The level of expressed mRNA in the presence of chemical substance/The level of expressed mRNA in the absence of chemical substance (yeast gene YMR097C, cultured two hours with substance): 1.8 | The level of expressed mRNA in the presence of chemical substance/The level of expressed mRNA in the absence of chemical substance (yeast gene YMR102C, cultured two hours with substance): 2.8 | The level of expressed mRNA in the presence of chemical substance/The level of expressed mRNA in the absence of chemical substance (yeast gene YMR107W, cultured two hours with substance): 8.1 | The level of expressed mRNA in the presence of chemical substance/The level of expressed mRNA in the absence of chemical substance (yeast gene YMR180C, cultured two hours with substance): 1.7 | The level of expressed mRNA in the presence of chemical substance/The level of expressed mRNA in the absence of chemical substance (yeast gene YMR184W, cultured two hours with substance): 2.0 | The level of expressed mRNA in the presence of chemical substance/The level of expressed mRNA in the absence of chemical substance (yeast gene YMR191W, cultured two hours with substance): 2.1 | The level of expressed mRNA in the presence of chemical substance/The level of expressed mRNA in the absence of chemical substance (yeast gene YMR295C, cultured two hours with substance): 3.4 | The level of expressed mRNA in the presence of chemical substance/The level of expressed mRNA in the absence of chemical substance (yeast gene YMR316W, cultured two hours with substance): 6.4 | The level of expressed mRNA in the presence of chemical substance/The level of expressed mRNA in the absence of chemical substance (yeast gene YNL044W, cultured two hours with substance): 3.4 | The level of expressed mRNA in the presence of chemical substance/The level of expressed mRNA in the absence of chemical substance (yeast gene YNL074C, cultured two hours with substance): 1.3
